From patent US20240252472A1, “COMBINATIONS FOR TREATING CANCER” (Purdue Pharma L.P., priority 2023, published 2024) come the findings set out here.

Molecules are shown by their SMILES.

Type in all cases: cell-based, human
For assay [1], the system named is CD38. Nature of the assay: CD38 expression by western blot in MM cell lines. How it is done: Western Blot Analysis Cells were collected and centrifuged at 1200 rpm for 5 minutes at 4° C. Cells were washed with PBS and lysed in ice-cold lysis buffer [140 mmol/L NaCl, 10 mmol/L EDTA, 10% glycerol, 1% NP40, 20 mmol/L Tris (pH 7), 1 μMol/L pepstatin, 1 μg/mL aprotinin, 1 μg/mL leupeptin, 1 mmol/L sodium orthovanadate]. Samples were centrifuged at 10,000×g at 4° C. for 10 minutes, and supernatants were transferred to new tubes and western blots were performed following standard procedures. CD38 and anti-α-tubulin primary antibodies used in Western blot analyses were obtained from Cell Signaling (Boston, MA, USA). The horseradish peroxidase-conjugated secondary antibodies were from GE Healthcare (Chicago, IL, USA).
Background: Immunoblotting shows a protein as a band on a membrane.

Assay [2] relates to CD38. The assay can be described thus: CD38 expression by immunofluorescence in MM cell lines. The following applies: RPMI-8226, MOLP-8; 2.5 μM; relative to DMSO control. How it is done:
Immunofluorescence After appropriate treatments in vitro, cells were placed on glass slides coated with poly-L-lysine followed by 15 minutes incubation in a cell culture incubator. Cells were fixed with 4% paraformaldehyde for 30 minutes, blocked with BSA 100 μg/mL for 1 h at room temperature and incubated with a primary antibody (anti-CD38 antibody (1:100)) overnight at 4° C. The incubation with the anti-mouse secondary antibody, labelled with Alexa Fluor 488, was performed in darkness for 1 h at room temperature. After three washes for 5 min in PBS, nuclei were stained with DAPI (Sigma) 1:1000 in PBS for 5 min at room temperature. Finally, cells were washed three times for 10 min in PBS and slides were then mounted using VECTASHIELD Mounting Medium (Vector Laboratories, Burlingame, CA). Fluorescent images were acquired with a LEICA SP5 DMI-6000B confocal microscope (Leica, Wetzlar, Germany) with a 63.0× lens zoomed in 6×.

The test system of the next assay is MICB mRNA. Nature of the assay: MICB mRNA by RT-qPCR in MM cell lines. The conditions noted are these: all four MM cell lines except MOLP-8; 1 and 2.5 μM, 36 hours. Here is the method: Real time quantitative PCR (RT-qPCR) Total RNA was isolated using the RNeasy Mini Kit (Qiagen, Hilden, Germany). Following reverse transcription, PCR was performed using TaqMan Gene Expression Assays (Applied Biosystems, Foster City, CA, USA): CD38 (Hs01120071_m1), MICA (Hs00741286_m1), MICB (Hs00792952_m1) and GAPDH (Hs99999905_m1). The results were expressed as fold change relative to expression of the target gene in control cells, using endogenous expression of GAPDH for normalization.

The subject of a further assay is MOLP-8 cells. Nature of the assay: Daratumumab cross-linking mediated apoptosis after EDO-S101 pre-treatment. The conditions noted are these: MOLP-8 pre-treated with EDO-S101 2.5 μM 48 h, daratumumab 1 μg/mL 24 h + F(ab)2; vs not pre-treated, p=0.0454. How it is done: (§1) ADCC, CDC and apoptosis via cross-linking To assess the effect of tinostamustine pre-treatment on cytotoxic mechanisms mediated by daratumumab, MM cell lines were first incubated in presence of tinostamustine (2.5 μM) or DMSO for 48 hours. Cells were then washed to remove tinostamustine or DMSO from the culture medium, and the corresponding cytotoxic assay (ADCC, CDC or apoptosis via cross-linking) was performed.
For the evaluation of ADCC, tinostamustine or DMSO pre-treated cells were cocultured with NK cells obtained from healthy donors in the presence of daratumumab (1 μg/ml) or the corresponding isotype control for 4 hours (ratio 1:1). […] In all three assays, the cytotoxic effect on MM cells was evaluated by flow cytometry with Annexin V/7AAD staining after treatment with daratumumab. […]
MM cells (MOLP-8 cells pre-treated with 0, 0.1, 0.5, 1 or 2.5 μM EDO-S101 for 48 hours in accordance with the methods outlined above) were incubated for 24 hours in the presence of 1 μg/mL daratumumab or the corresponding isotype control, along with 10 μg/mL F(ab)2 fragments for cross-linking. Apoptosis was evaluated by flow cytometry in accordance with the methods outlined above, using AnnexinV/7AAD staining. The effect of EDO-S101 on the crosslinking-mediated apoptosis induced by daratumumab was assessed using the following formula: […]

The subject of assay [3] is MM cell lines (MM.1S, RPMI-8226, MOLP-8). The assay can be described thus: Daratumumab-mediated ADCC on pre-treated MM cells. The following applies: pre-treatment 2.5 μM 48 hours, NK cells 1:1 + daratumumab 1 μg/mL, 4 hours, vs DMSO-pretreated. How it is done:
as §1
For the evaluation of ADCC, tinostamustine or DMSO pre-treated cells were cocultured with NK cells obtained from healthy donors in the presence of daratumumab (1 μg/ml) or the corresponding isotype control for 4 hours (ratio 1:1). Briefly, peripheral blood mononuclear cells (PBMCs) were isolated from healthy donor buffy coats by Lymphoprep density gradient centrifugation. […] In all three assays, the cytotoxic effect on MM cells was evaluated by flow cytometry with Annexin V/7AAD staining after treatment with daratumumab. […]
MM cells (MM1.S, RPMI-8226, MOLP-8 cells pre-treated with 0 or 2.5 μM EDO-S101 in accordance with the methods outlined above) were co-cultured with NK-cells (ratio 1:1), in the presence of daratumumab (1 μg/mL) or the corresponding isotype control, for 4 hours at 37° C. […] ADCC was then evaluated using flow cytometry in accordance with the methods outlined above, using the following panel: CD38me-FITC/AnnexinV-PE/7AAD/CD45-APC.

`Cn1c(CCCCCCC(=O)NO)nc2cc(N(CCCl)CCCl)ccc21` [EDO-S101, 7-(5-(bis(2-chloroethyl)amino)-1-methyl-1H-benzo[d]imidazol-2-yl)-N-hydroxyheptanamide]: in the assay on CD38 [1] (MM1.S, JJN3, RPMI-8226, 1 and 2.5 μM), the “CD38 expression, western blot” value is “increased”. In addition, the “increase in CD38 by Western blot and RT-qPCR” value in the assay on CD38 [1] (MOLP-8 cells) was “not observed”. Further, in the assay on CD38 [2], the “CD38 expression, immunofluorescence” value was “increased”. The “expression of MICB at the mRNA level” value in the assay on MICB mRNA is reported as “increased”. Also, the “daratumumab-mediated apoptosis via cross-linking” value in the assay with MOLP-8 cells is recorded as “higher”. In addition, the “percentage of dead myeloma cells, daratumumab-mediated ADCC” value in assay [3] is “significantly enhanced”; in assay [3] (listed as tinostamustine), “higher”.
